Measured values: EP0840781B1, “METHODS AND DEVICES FOR THE REMOVAL OF PSORALENS FROM BLOOD PRODUCTS” (Cerus Corporation, priority 1995, dated 1996)
Read-outs that look alike come from different tables or passages of the source.

Assays:
Pseudomonas = test: Bacterial inactivation by compound plus UVA, colony forming units; format: cell-based; settings: 16 µM; 5 J/cm^2 irradiation; starting titer 6.5 logs
Description: In this example bacterial inactivation by the photoreactive nucleic acid binding compounds described herein was measured as a function of the ability of the bacteria to subsequently replicate. A gram negative bacteria was chosen as representative of the more difficult bacterial strains to inactivate.
The bacteria a strain of Pseudomonas, was inoculated into LB with a sterile loop and grown overnight in a shaker at 37°C. Based on the approximation that one OD at 610 nm is equivalent to 5 x 10^8 colony forming units (cfu)/mL, a 1:10 dilution of the culture was measured on a spectrophotometer. (manufactured by Shimatsu). The bacterial culture was added to a solution of 15% fetal bovine serum in DMEM to a final bacteria concentration of approximately 10^6/mL. An aliquot (0.8 mL) was transferred to a 1.5 mL snap-top polyethylene tube. An aliquot (0.004-0.040 mL) of the test compound stock solution prepared in water, ethanol or dimethylsulfoxide at 0.80-8.0 mM was added to the tube. Compounds were tested at a concentration of 16 µM. The tubes were placed in a light device as described in EXAMPLE I and irradiated with 1.3 J/cm^2, 1.2 J/cm^2, and finally 2.5 J/cm^2, for a total of 5 J/cm^2. 150 µL were removed for testing after each pulse period. Sterile 13 mL dilution tubes were prepared; each test compound required one tube with 0.4 mL of LB broth and four tubes containing 0.5 mL of LB broth. To make the dilutions, a 0.050 mL aliquot of the irradiated solution of phage and test compound was added to the first dilution tube of […] of media then 0.050 mL of this solution was added to the second tube of 0.5 mL medium (1:10). The second solution was then diluted serially (1:10) into the remaining tubes. 100 µL of the original sample and each dilution are plated separately onto LB agar plates and incubated at 37 °C overnight. The colony forming units were then counted the following morning and the titer of the phage remaining after phototreatment was calculated based on the dilution factors.
The following controls were run: the "bacteria only" in which bacteria was not treated with test compound and not irradiated (listed as "starting titer" in the tables below); the "UV only" in which the bacteria was irradiated in the absence of test compound. Dark controls were not performed here for reasons set forth in Example 12 above.

Male Balb/c mice = settings: for bone marrow toxicity or micronucleus formation: experiment repeated using increased dose levels
Description: Male Balb/c mice were then injected with 0.1 ml of a compound solution via the tail vein. At least 3 mice were injected per dose level Saline only was used as a negative control. For a positive control, cyclophosphamide (cycloPP) was administered at a dose of 30 mg/kg. In the experimental group, the injections were repeated once per day for four days. In the positive control group, the sample was administered only once, on day three. On day 5, several microliters of blood were withdrawn from each subject and smeared on a glass slide. Cells were fixed in absolute methanol and stored in a slide rack.
For analysis, cells were stained with acridine orange and visualized under a fluorescence microscope by counting: (i) the number of reticulocytes per 5000 erythrocytes; and (ii) the number of micronucleated reticulocytes per 1000 reticulocytes. Reticulocytes were distinguished by their red fluorescence due to the presence of RNA. Micronuclei were distinguished by their green fluorescence due to the presence of DNA. The percentage of reticulocytes (%PCE) was then calculated. A decrease in the frequency of erythrocytes, represented by an increase in the percentage of reticulocytes, is an indication of bone marrow toxicity. The percentage of reticulocytes with micronuclei (%PCE with MN) was also calculated. An increase in %PCE with MN is a measure of elastogenicity.
After initial results were determined, the experiment was repeated using increased dose levels, until: (i) Micronucleus formation was seen; or (ii). Bone marrow toxicity was observed; or (iii) The lethal dose was reached; or (iv) A dose of 5 g/kg was administered.

[1] = male, Balb/c, mouse, in vivo, 25 mg/kg, 5 day
[2] = male, Balb/c, mouse, in vivo, 40 mg/kg, 5 day

Row | SMILES | log kill of bacteria (Pseudomonas) (Pseudomonas) | bone marrow toxicity or micronucleus formation (Male Balb/c mice) | PCE + MN (%) (Male Balb/c mice; [1]) | PCE/RBC (%) (Male Balb/c mice; [1]) | PCE + MN (%) (Male Balb/c mice; [2]) | PCE/RBC (%) (Male Balb/c mice; [2]) | PCE/RBC (%) (Male Balb/c mice; Dose 45 mg/kg, tail vein, once per day for four days, blood on day 5)
1 | Cc1oc2c(C)c3oc(=O)cc(C)c3cc2c1CN [AMT, 4'-Aminomethyl-4,5',8-trimethylpsoralen, reference compound] | 5.2 logs | – | – | – | – | – | –
2 | Cc1oc2c(C)c3oc(=O)cc(C)c3cc2c1COCCN [Compound 2, 4'-(4-amino-2-oxa)butyl-4,5',8-trimethylpsoralen] | > 5.5 logs | the acutely lethal dose was reached before there were any signs of bone marrow toxicity or micronucleus formation | 0.25 ± 0.11% | 3.46 ± 0.32% | 0.20 ± 0.14% | 3.08 ± 0.82% | –
3 | Cc1cc(=O)oc2c(C)c3oc(COCCN)c(C)c3cc12 [Compound 18, 5'-(4-amino-2-oxa)butyl-4,4',8-trimethylpsoralen] | – | the acutely lethal dose was reached before there were any signs of bone marrow toxicity or micronucleus formation | – | – | – | – | –
4 | Cc1oc2c(C)c3oc(=O)cc(C)c3cc2c1CNCCCCN [Compound 6, 4'-(6-amino-2-aza)hexyl4,5',8-trimethylpsoralen] | > 5.5 logs | the acutely lethal dose was reached before there were any signs of bone marrow toxicity or micronucleus formation | – | – | – | – | 3.79 ± 10.41%
